In the supplement of paper PMC10307832:

Tests used:
Assay in all cases: relative viability (nuclei count vs DMSO), 5 days (fraction); higher = more cells survive
IU1-47 + Luminespib = compound: CC1=CC(=C(N1C2=CC=C(C=C2)Cl)C)C(=O)CN3CCCCC3 [IU1-47] + CCNC(=O)c1noc(-c2cc(C(C)C)c(O)cc2O)c1-c1ccc(CN2CCOCC2)cc1 [Luminespib] (partner 0.01 µM)
Outline: (§1)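 Medians of duplicate plates are given as relative viability. That measure is the nuclei count in treated wells divided by the count in vehicle wells. Counts were taken on 4× images of lung cancer cell lines in 1536-well plates, 5 days after pin-tool dosing the day after seeding with one drug alone or a fixed anchor-drug dose plus five library-drug doses (not always all listed) in √10 steps.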

IU1-47 + Trametinib = compound: CC1=CC(=C(N1C2=CC=C(C=C2)Cl)C)C(=O)CN3CCCCC3 [IU1-47] + CC(=O)Nc1cccc(-n2c(=O)n(C3CC3)c(=O)c3c(Nc4ccc(I)cc4F)n(C)c(=O)c(C)c32)c1 [Trametinib] (partner 0.02 µM)
Outline: as §1

FG-4592 + Pictilisib = compound: Cc1nc(C(=O)NCC(=O)O)c(O)c2ccc(Oc3ccccc3)cc12 [FG-4592] + CS(=O)(=O)N1CCN(Cc2cc3nc(-c4cccc5[nH]ncc45)nc(N4CCOCC4)c3s2)CC1 [Pictilisib] (partner 1 µM)
Outline: as §1

FG-4592 + Olaparib = compound: Cc1nc(C(=O)NCC(=O)O)c(O)c2ccc(Oc3ccccc3)cc12 [FG-4592] + O=C(c1cc(Cc2n[nH]c(=O)c3ccccc23)ccc1F)N1CCN(C(=O)C2CC2)CC1 [Olaparib] (partner 8 µM)
Outline: as §1

| Cell Line | relative viability (IU1-47 + Luminespib; first compound 0.08 µM) | relative viability (IU1-47 + Luminespib; first compound 0.253 µM) | relative viability (IU1-47 + Luminespib; first compound 0.8 µM) | relative viability (IU1-47 + Luminespib; first compound 2.53 µM) | relative viability (IU1-47 + Luminespib; first compound 8 µM) | relative viability (IU1-47 + Trametinib; first compound 0.08 µM) | relative viability (IU1-47 + Trametinib; first compound 0.253 µM) | relative viability (IU1-47 + Trametinib; first compound 0.8 µM) | relative viability (IU1-47 + Trametinib; first compound 2.53 µM) | relative viability (IU1-47 + Trametinib; first compound 8 µM) | relative viability (FG-4592 + Pictilisib; first compound 0.08 µM) | relative viability (FG-4592 + Pictilisib; first compound 0.253 µM) | relative viability (FG-4592 + Pictilisib; first compound 0.8 µM) | relative viability (FG-4592 + Pictilisib; first compound 2.53 µM) | relative viability (FG-4592 + Pictilisib; first compound 8 µM) | relative viability (FG-4592 + Olaparib; first compound 0.08 µM) | relative viability (FG-4592 + Olaparib; first compound 0.253 µM) | relative viability (FG-4592 + Olaparib; first compound 2.53 µM) | relative viability (FG-4592 + Olaparib; first compound 8 µM) | relative viability (FG-4592 + Olaparib; first compound 0.8 µM) |
| --- | --- | --- | --- | --- | --- | --- | --- | --- | --- | --- | --- | --- | --- | --- | --- | --- | --- | --- | --- | --- |
| LU99A | 0.32 | 0.182 | 0.273 | 0.302 | 0.259 | 0.499 | 0.355 | 0.606 | 0.617 | 0.543 | 0.311 | 0.28 | 0.291 | 0.316 | 0.339 | 0.268 | 0.242 | 0.276 | 0.29 | – |
| LXF-289 | 0.822 | 0.629 | 0.916 | 0.5 | 0.468 | 0.689 | 0.726 | 0.645 | 0.68 | 0.668 | 0.776 | 0.696 | 0.822 | 0.708 | 0.769 | 1.09 | 0.961 | 1.01 | 1.1 | 1.07 |
| NCI-H23 | 0.206 | 0.237 | 0.203 | 0.229 | 0.209 | 0.5 | – | 0.305 | 0.35 | 0.38 | 0.365 | 0.433 | 0.486 | 0.449 | 0.398 | 0.34 | 0.333 | 0.321 | 0.296 | 0.365 |
| NCI-H322M | 1.03 | 0.929 | 0.922 | 0.879 | 0.715 | 0.547 | 0.487 | 0.503 | 0.464 | 0.55 | 0.379 | 0.481 | 0.481 | 0.512 | 0.583 | – | 0.746 | 0.766 | 0.897 | 0.713 |
| NCI-H522 | 1.32 | 1.27 | 1.35 | 0.864 | 1.23 | 0.826 | 0.747 | 0.708 | 0.715 | 0.865 | – | – | – | – | – | 0.766 | 0.644 | 0.588 | 0.678 | – |
| NCI-H1299 | – | – | – | – | – | – | – | – | – | – | 0.913 | 0.645 | 0.915 | 0.724 | 0.752 | 0.935 | 0.906 | 1.01 | 0.971 | 1.01 |
| NCI-H1563 | 0.468 | 0.52 | 0.538 | 0.506 | 0.497 | – | – | – | – | – | 0.655 | 0.624 | 0.657 | 0.648 | 0.669 | – | – | – | – | – |
| NCI-H1623 | 0.602 | 0.611 | 0.519 | 0.456 | 0.661 | – | – | – | – | – | – | – | – | – | – | – | – | – | – | – |
| NCI-H1648 | – | – | – | – | – | 0.624 | 0.535 | 0.463 | 0.407 | 0.391 | – | – | – | – | – | 0.712 | 0.647 | 0.483 | 1.43 | – |
| NCI-H1703 | – | – | – | – | – | – | – | – | – | – | 0.271 | 0.236 | 0.218 | 0.253 | 0.245 | 0.428 | 0.337 | 0.341 | 0.423 | 0.336 |
| NCI-H2342 | 0.698 | 0.679 | 0.775 | 0.713 | 0.745 | 0.85 | 0.882 | 1.05 | 0.973 | 0.89 | – | – | – | – | – | 0.433 | 0.436 | 0.436 | 0.422 | 0.452 |
| SW 900 | 0.191 | 0.172 | 0.181 | 0.176 | 0.194 | 0.876 | – | 0.783 | 0.881 | 0.716 | – | – | – | – | – | – | 0.946 | 0.812 | 0.794 | – |
